Results as given in PubChem BioAssay (NCI).
Several values for one entry are separate records, joined by “and”; a condition that tells them apart may be missing. Equal values may be shown once.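 Protocol summary: plate cells (96-well), add compound at 5 concentrations, incubate 48 h, interpolate endpoints linearly. GI50 marks 50% less growth. At the TGI there is no net growth.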

How the values were obtained:
Experiment in all cases: DTP human tumour cell line panel, 48 h
[1] = system: SF-295 CNS
[2] = system: HCT-15 colon
[3] = system: HOP-62 NSCLC
[4] = system: UO-31 renal
[5] = system: NCI/ADR-RES ovarian
[6] = system: EKVX NSCLC
[7] = system: U251 CNS
[8] = system: NCI-H522 lung
[9] = system: SW-620 colon
[10] = system: LOX IMVI melanoma
[11] = system: SF-539 CNS
[12] = system: A549 NSCLC
[13] = system: PC-3 prostate
[14] = system: IGROV1 ovarian
[15] = system: RXF 393 renal
[16] = system: MOLT-4 leukemia
[17] = system: SR leukemia
[18] = system: CAKI-1 renal
[19] = system: SF-268 CNS
[20] = system: DU-145 prostate
[21] = system: HL-60(TB) leukemia
[22] = system: NCI-H460 lung
[23] = system: CCRF-CEM leukemia
[24] = system: HCT-116 colon
[25] = system: K-562 leukemia
[26] = system: MCF7 breast
[27] = system: NCI-H226 lung
[28] = system: A498 renal

Compound: CC(C)C[C@H](NC(=O)[C@@H]1CCCCCCCCCCC(=O)N[C@@H](CC(=O)N2CCC[C@@H]2C2CCCC2)C(=O)N1)B(O)O
- GI50 [1]: 0.00383 µM
- TGI [1]: 0.0145 µM
- GI50 [2]: 0.119 µM and 0.224 µM
- TGI [2]: 0.356 µM and 2.46 µM
- GI50 [3]: 0.00568 µM
- TGI [3]: 0.023 µM
- GI50 [4]: 0.171 µM and 0.317 µM
- TGI [4]: 0.466 µM and 1.8 µM
- GI50 [5]: 1.97 µM
- TGI [5]: 5.9 µM
- GI50 [6]: 0.00925 µM and 0.0217 µM
- GI50 [7]: 0.00392 µM
- TGI [7]: 0.0178 µM and 0.0729 µM
- GI50 [8]: 0.00221 µM
- TGI [8]: 0.00566 µM
- GI50 [9]: 0.00409 µM
- TGI [9]: 0.042 µM and 0.0254 µM
- GI50 [10]: 0.00175 µM
- TGI [10]: 0.00346 µM
- GI50 [11]: 0.0018 µM
- TGI [11]: 0.00347 µM
- GI50 [12]: 0.00711 µM
- TGI [12]: 4.57 µM
- GI50 [13]: 0.00461 µM
- TGI [13]: 0.0964 µM and 0.0593 µM
- GI50 [14]: 0.00408 µM
- GI50 [15]: 0.00253 µM
- TGI [15]: 0.00628 µM
- GI50 [16]: 0.0034 µM
- TGI [16]: 8.48 µM
- GI50 [17]: 0.00381 µM
- TGI [17]: > 100 µM
- GI50 [18]: 0.108 µM and 0.0526 µM
- TGI [18]: 3.35 µM
- GI50 [19]: 0.00446 µM
- TGI [19]: 0.0466 µM
- GI50 [20]: 0.00846 µM
- TGI [20]: 37 µM
- GI50 [21]: 0.0032 µM
- TGI [21]: 1.94 µM
- GI50 [22]: 0.00862 µM
- TGI [22]: 0.0436 µM and 0.0405 µM
- GI50 [23]: 0.00287 µM
- GI50 [24]: 0.0026 µM
- GI50 [25]: 0.00456 µM
- TGI [25]: > 100 µM
- GI50 [26]: 0.0037 µM
- GI50 [27]: 0.00397 µM
- TGI [27]: 0.0172 µM
- GI50 [28]: 0.0216 µM and 0.0344 µM
